The source of these data is paper PMC2248166, “Quantitative peptide binding motifs for 19 human and mouse MHC class I molecules derived using positional scanning combinatorial peptide libraries” (Immunome Research, 2008).

Where a SMILES comes first, the peptide text is derived from it.

The test addresses HLA B*1501 (Homo sapiens, UniProt P01889, A329T/A93T/A95T/C349S/D201E/D98Y/E187L/E204Q/E69M/E70A/K202T/N87E/Q94N/R155S/R180W/S121R/S35A/S48A/V306I/V36M/Y140S/Y91S). Briefly: biochemical. Type of test: binding.
As for `CC[C@H](C)[C@H](NC(=O)[C@@H](N)CCC(=O)O)C(=O)N[C@@H](Cc1ccccc1)C(=O)N[C@@H](CCCCN)C(=O)N[C@@H](Cc1c[nH]cn1)C(=O)N[C@@H](CC(C)C)C(=O)N[C@H](C(=O)N[C@@H](Cc1ccccc1)C(=O)N[C@@H](Cc1ccccc1)C(=O)O)C(C)C` [3102.0972] (H-EIFKHLVFF-OH), half-maximal inhibition (IC50) was put at 12 nM.

`CC[C@H](C)[C@H](NC(=O)[C@H](CC(C)C)NC(=O)[C@H](CC(=O)O)NC(=O)[C@H](CCCNC(=N)N)NC(=O)[C@H](CCSC)NC(=O)[C@@H](N)CC(N)=O)C(=O)N[C@H](C(=O)N[C@H](C(=O)N[C@@H](Cc1ccccc1)C(=O)O)[C@@H](C)O)C(C)C` [3102.0975] (H-NMRDLIVTF-OH) came in with an IC50 of 8.3 nM. This IC50 and that of the compound before are within 1.5-fold of each other. In the case of `CC(C)C[C@H](NC(=O)[C@@H](N)CC(C)C)C(=O)N[C@@H](CO)C(=O)N[C@@H](CCCNC(=N)N)C(=O)N[C@@H](Cc1ccc(O)cc1)C(=O)N[C@@H](CC(=O)O)C(=O)N[C@@H](CCC(=O)O)C(=O)N[C@@H](Cc1c[nH]cn1)C(=O)N[C@@H](Cc1ccccc1)C(=O)O` [3102.0976] (H-LLSRYDEHF-OH), half-maximal inhibition (IC50) required 54 nM. `CSCC[C@H](NC(=O)[C@H](Cc1c[nH]cn1)NC(=O)[C@H](CCC(=O)O)NC(=O)[C@H](Cc1ccccc1)NC(=O)[C@H](Cc1ccc(O)cc1)NC(=O)CNC(=O)[C@H](CCCNC(=N)N)NC(=O)[C@H](CO)NC(=O)[C@@H](N)CCSC)C(=O)O` [3102.0982] (H-MSRGYFEHM-OH) showed an IC50 of 31 nM. Turning to `CC[C@H](C)[C@H](NC(=O)[C@H](CCSC)NC(=O)[C@@H](N)CO)C(=O)N[C@@H](CC(N)=O)C(=O)N[C@@H](Cc1ccc(O)cc1)C(=O)N[C@@H](Cc1ccc(O)cc1)C(=O)N[C@@H](CC(N)=O)C(=O)N[C@@H](CCC(=O)O)C(=O)N[C@@H](CCSC)C(=O)O` [3102.0985] (H-SMINYYNEM-OH), the IC50 is 2.3 nM. With `CC[C@H](C)[C@H](NC(=O)[C@@H](N)Cc1ccccc1)C(=O)N[C@@H](CC(N)=O)C(=O)N[C@@H](CO)C(=O)N[C@H](C(=O)N[C@@H](CS)C(=O)N[C@@H](Cc1ccc(O)cc1)C(=O)N[C@H](C(=O)N[C@@H](Cc1ccccc1)C(=O)O)C(C)C)[C@@H](C)O` [3102.0986] (H-FINSTCYVF-OH) the figure was 4.3 nM. Regarding `C[C@@H](O)[C@H](NC(=O)[C@H](Cc1ccccc1)NC(=O)[C@H](CO)NC(=O)[C@@H](N)CCCNC(=N)N)C(=O)N[C@@H](Cc1ccccc1)C(=O)N[C@@H](CCCCN)C(=O)N[C@@H](CCC(=O)O)C(=O)NCC(=O)N[C@@H](Cc1ccccc1)C(=O)O` [3102.0988] (H-RSFTFKEGF-OH), the IC50 is 35 nM. The compound `CC[C@H](C)[C@H](NC(=O)[C@H](CO)NC(=O)[C@@H](N)CCSC)C(=O)N[C@@H](CC(=O)O)C(=O)N[C@@H](Cc1c[nH]cn1)C(=O)N[C@@H](CS)C(=O)N[C@@H](CO)C(=O)N[C@@H](CO)C(=O)N[C@@H](Cc1ccccc1)C(=O)O` [3102.0989] (H-MSIDHCSSF-OH) returned an IC50 of 0.95 nM. Next, `CC[C@H](C)[C@H](N)C(=O)N[C@H](C(=O)N[C@@H](Cc1ccc(O)cc1)C(=O)N[C@@H](CS)C(=O)N[C@@H](CC(C)C)C(=O)N[C@H](C(=O)N[C@H](C(=O)N[C@@H](Cc1c[nH]cn1)C(=O)N[C@@H](CCSC)C(=O)O)[C@@H](C)O)C(C)C)[C@@H](C)O` [3102.0993] (H-ITYCLVTHM-OH): 25 nM; `CC(C)C[C@H](NC(=O)[C@H](Cc1ccc(O)cc1)NC(=O)[C@H](C)NC(=O)[C@@H](N)CCCCN)C(=O)N[C@@H](Cc1ccc(O)cc1)C(=O)N[C@H](C(=O)N[C@@H](CCC(=O)O)C(=O)N[C@@H](Cc1ccc(O)cc1)C(=O)N[C@@H](Cc1ccccc1)C(=O)O)[C@@H](C)O` [3102.0995] (H-KAYLYTEYF-OH): 7.6 nM; `CC[C@H](C)[C@H](NC(=O)[C@@H](N)Cc1c[nH]cn1)C(=O)N[C@@H](CC(N)=O)C(=O)N[C@@H](CCCCN)C(=O)N[C@@H](CC(C)C)C(=O)N[C@@H](Cc1ccccc1)C(=O)N[C@@H](CO)C(=O)N[C@H](C(=O)N[C@@H](Cc1ccccc1)C(=O)O)C(C)C` [3102.0997] (H-HINKLFSVF-OH): 0.92 nM.

In the case of `CC[C@H](C)[C@H](NC(=O)[C@H](CO)NC(=O)[C@H](C)N)C(=O)N[C@H](C(=O)N[C@@H](C)C(=O)N[C@@H](Cc1ccccc1)C(=O)N[C@@H](CCCCN)C(=O)N[C@@H](CO)C(=O)N[C@@H](CCSC)C(=O)O)[C@@H](C)O` [3102.0999] (H-ASITAFKSM-OH), half-maximal inhibition (IC50) was put at 25 nM. `CC[C@H](C)[C@H](NC(=O)[C@H](C)NC(=O)[C@@H](N)CC(C)C)C(=O)N1CCC[C@H]1C(=O)N[C@@H](C)C(=O)N[C@H](C(=O)N[C@@H](CCC(=O)O)C(=O)N[C@@H](Cc1ccccc1)C(=O)N[C@@H](Cc1ccccc1)C(=O)O)[C@@H](C)O` [3102.1001] (H-LAIPATEFF-OH) yielded a concentration for half-maximal inhibition (IC50) of 4.2 nM. `CC[C@H](C)[C@H](NC(=O)[C@H](CO)NC(=O)[C@@H](N)CC(C)C)C(=O)N[C@@H](Cc1ccccc1)C(=O)N[C@@H](Cc1ccccc1)C(=O)N[C@H](C(=O)N[C@H](C(=O)N[C@H](C(=O)N[C@@H](C)C(=O)O)C(C)C)C(C)C)[C@@H](C)CC` [3102.1004] (H-LSIFFIVVA-OH): the midpoint of inhibition, the IC50, lay at 82 nM.

As to `CC[C@H](C)[C@H](NC(=O)[C@H](CC(N)=O)NC(=O)[C@H](C)N)C(=O)N[C@H](C(=O)N[C@@H](Cc1c[nH]cn1)C(=O)N[C@@H](Cc1ccccc1)C(=O)N[C@@H](CS)C(=O)N[C@@H](CO)C(=O)N[C@@H](Cc1ccccc1)C(=O)O)[C@@H](C)O` [3102.1005] (H-ANITHFCSF-OH), the IC50 was found to be 15 nM.

Compound `CC[C@H](C)[C@H](NC(=O)[C@H](CC(N)=O)NC(=O)[C@H](C)NC(=O)[C@H](CCCNC(=N)N)NC(=O)CNC(=O)[C@@H](N)CC(C)C)C(=O)N[C@H](C(=O)N[C@@H](Cc1c[nH]cn1)C(=O)N[C@@H](Cc1ccccc1)C(=O)O)[C@@H](C)O` [3102.1006] (H-LGRANITHF-OH) yielded a half-inhibitory concentration (IC50) of 6.7 nM.

Compound `CC(C)C[C@H](NC(=O)[C@H](CC(C)C)NC(=O)[C@@H](N)Cc1ccccc1)C(=O)N[C@@H](CO)C(=O)N[C@@H](CC(C)C)C(=O)N[C@H](C(=O)N[C@@H](CCC(=O)O)C(=O)N[C@@H](Cc1ccccc1)C(=O)N[C@@H](Cc1ccccc1)C(=O)O)C(C)C` [3102.1008] (H-FLLSLVEFF-OH) yielded an IC50 of 0.82 nM.

Regarding `CSCC[C@H](NC(=O)[C@H](CO)NC(=O)[C@H](CS)NC(=O)[C@H](CO)NC(=O)[C@@H](NC(=O)[C@@H](N)CCCCN)C(C)C)C(=O)N[C@@H](CC(C)C)C(=O)N[C@@H](CCC(=O)O)C(=O)N[C@@H](Cc1ccccc1)C(=O)O` [3102.1010] (H-KVSCSMLEF-OH), 0.84 nM corresponded to half-maximal inhibition (IC50).

`CC[C@H](C)[C@H](NC(=O)[C@@H](NC(=O)CN)[C@@H](C)O)C(=O)N[C@@H](CCSC)C(=O)N[C@H](C(=O)N[C@@H](CO)C(=O)N[C@@H](CCC(=O)O)C(=O)N[C@@H](Cc1c[nH]cn1)C(=O)N[C@@H](Cc1ccccc1)C(=O)O)C(C)C` [3102.1012] (H-GTIMVSEHF-OH) displayed an IC50 of 57 nM. This IC50 lies about 68-fold higher than the previous one. With `CC[C@H](C)[C@H](NC(=O)[C@H](CCSC)NC(=O)[C@H](C)N)C(=O)N[C@@H](CCC(=O)O)C(=O)N[C@@H](CC(C)C)C(=O)N[C@@H](CS)C(=O)NCC(=O)N[C@@H](C)C(=O)N[C@@H](Cc1ccccc1)C(=O)O` [3102.1013] (H-AMIELCGAF-OH) the figure was 0.34 nM; with `CC(C)C[C@H](NC(=O)[C@H](Cc1ccccc1)NC(=O)[C@H](C)NC(=O)CNC(=O)[C@H](CS)NC(=O)[C@H](CC(C)C)NC(=O)[C@@H](N)CCC(=O)O)C(=O)N[C@@H](Cc1ccccc1)C(=O)N[C@@H](Cc1ccc(O)cc1)C(=O)O` [3102.1015] (H-ELCGAFLFY-OH), 7.5 nM. Take `CC[C@H](C)[C@H](NC(=O)[C@H](CC(C)C)NC(=O)[C@@H](N)CO)C(=O)N[C@@H](Cc1ccc(O)cc1)C(=O)N[C@@H](CC(C)C)C(=O)N[C@@H](CS)C(=O)N[C@H](C(=O)N[C@@H](Cc1ccccc1)C(=O)N[C@@H](CCSC)C(=O)O)[C@@H](C)O` [3102.1017] (H-SLIYLCTFM-OH): half-maximal inhibition (IC50) was put at 4.5 nM. `CC[C@H](C)[C@H](N)C(=O)N[C@H](C(=O)N[C@@H](CO)C(=O)N[C@@H](CO)C(=O)N[C@@H](CO)C(=O)N[C@H](C(=O)N[C@@H](CC(C)C)C(=O)N[C@@H](Cc1ccc(O)cc1)C(=O)N[C@@H](Cc1ccccc1)C(=O)O)[C@@H](C)O)[C@@H](C)CC` [3102.1018] (H-IISSSTLYF-OH) returned an IC50 of 1.1 nM. This IC50 is about 4.1-fold lower than that of the compound before. `CC(C)C[C@H](NC(=O)[C@H](CCCCN)NC(=O)[C@H](CCCCN)NC(=O)[C@H](CC(C)C)NC(=O)[C@@H](N)CC(C)C)C(=O)N[C@@H](CC(N)=O)C(=O)N[C@@H](CO)C(=O)N[C@@H](Cc1ccccc1)C(=O)NCC(=O)O` [3102.1020] (H-LLKKLNSFG-OH) displayed a half-inhibitory concentration (IC50) of 45 nM. Compound `CC(C)C[C@H](NC(=O)[C@@H](N)CC(C)C)C(=O)N[C@@H](Cc1c[nH]cn1)C(=O)N[C@@H](CS)C(=O)N[C@H](C(=O)N[C@H](C(=O)N[C@@H](CCC(=O)O)C(=O)N[C@@H](CO)C(=O)N[C@@H](Cc1ccc(O)cc1)C(=O)O)[C@@H](C)O)C(C)C` [3102.1022] (H-LLHCVTESY-OH) came in with a 50% inhibitory concentration (IC50) of 1 nM.

With `CC[C@H](C)[C@H](NC(=O)[C@H](CCC(=O)O)NC(=O)[C@H](Cc1ccccc1)NC(=O)[C@H](Cc1ccccc1)NC(=O)[C@@H](NC(=O)[C@@H](N)Cc1ccc(O)cc1)C(C)C)C(=O)N[C@H](C(=O)N[C@@H](Cc1c[nH]cn1)C(=O)N[C@@H](Cc1ccccc1)C(=O)O)[C@@H](C)CC` [3102.1024] (H-YVFFEIIHF-OH), inhibition was half-maximal at 0.69 nM (IC50). As for `CSCC[C@H](NC(=O)[C@H](Cc1c[nH]cn1)NC(=O)[C@H](CCCCN)NC(=O)[C@H](CC(N)=O)NC(=O)[C@@H](NC(=O)[C@H](CC(N)=O)NC(=O)[C@H](CO)NC(=O)[C@H](CCC(N)=O)NC(=O)[C@@H](N)CCCCN)[C@@H](C)O)C(=O)O` [3102.1026] (H-KQSNTNKHM-OH), the half-inhibitory concentration (IC50) was 28 nM. This IC50 lies about 41-fold higher than the previous one. `CSCC[C@H](NC(=O)[C@H](Cc1c[nH]cn1)NC(=O)[C@H](CCCCN)NC(=O)[C@H](CC(N)=O)NC(=O)[C@@H](NC(=O)[C@@H](N)CC(N)=O)[C@@H](C)O)C(=O)N[C@@H](CC(C)C)C(=O)N[C@@H](CCC(=O)O)C(=O)N[C@@H](Cc1ccccc1)C(=O)O` [3102.1027] (H-NTNKHMLEF-OH) displayed a half-maximal inhibitory concentration (IC50) of 12 nM.

Usually IC50 stands for the point on the concentration scale where inhibition reaches its midpoint. High values mean weaker potency in that assay, low ones greater potency in that assay.
